Source: US20050107440A1, “Rosiglitazone edisylates and their use as antidiabetics” (priority 2001, published 2005)

Assays:
Format in all cases: physicochemical
[1] = Solubility of the Ethanedisulfonate Form I in water (visual, aliquot addition); details: water added in aliquots 0.25 to 1 ml to approx. 30 mg; product of Example 2
[2] = Solubility of the Ethanedisulfonate Form II in water (visual, confirmed by HPLC assay of a saturated solution); details: water added in aliquots 1 to 1000 ml to approx. 100 mg, product of Example 7
Description: The visual solubility was confirmed by an HPLC assay of a saturated solution.

[3] = Solid state stability of the drug substance (storage 1 month, HPLC assay); details: product of Example 7
Experimental: The solid state stability of the drug substance was determined by storing approximately 1.0 g of the material in a glass bottle at a) 40° C./75% Relative Humidity (RH), open exposure, for 1 month and b) at 50° C., closed, for 1 month. […] Solubility of the Ethanedisulfonate Form II

SMILES | Solubility [1] [µg/mL] | Solubility [2] [µg/mL] | Solid state stability: HPLC assay (final content) ([3]; 40° C./75% RH, open exposure) [% initial] | Solid state stability: degradation ([3]; 40° C./75% RH, open exposure) | Solid state stability: HPLC assay (final content) ([3]; 50° C., closed) [% initial] | Solid state stability: degradation ([3]; 50° C., closed)
CN(CCOc1ccc(CC2SC(=O)NC2=O)cc1)c1ccccn1.O=S(=O)(O)CCS(=O)(=O)O (stereo not drawn) [Ethanedisulfonate Form I, 5-[4-[2-(N-methyl-N-(2-pyridyl)amino)ethoxy]benzyl]thiazolidine-2,4-dione 1,2-ethanedisulfonate Form I] | 4700 | – | – | – | – | –
CN(CCOc1ccc(CC2SC(=O)NC2=O)cc1)c1ccccn1.O=S(=O)(O)CCS(=O)(=O)O (stereo not drawn) [Ethanedisulfonate Form II, 5-[4-[2-(N-methyl-N-(2-pyridyl)amino)ethoxy]benzyl]thiazolidine-2,4-dione 1,2-ethanedisulfonate Form II] | – | 4700 | 98 | No significant degradation observed | 99 | No significant degradation observed
